Converted amounts (≈) assume the structure as drawn.
What was measured:
[1] = system: S. aureus 510 (MRSA); test: Minimum inhibitory concentration by broth microdilution (Example 2); format: cell-based, Staphylococcus aureus; settings: unit assumed
Description: (§1) Bacterial strains were maintained as suspensions in 20% (v/v) glycerol/Brain-Heart Infusion at −80° C.
(§2) A standard inoculum was prepared from broth culture.
(§3) The broth culture was diluted in broth to a turbidity equal to a 0.5 McFarland Standard using a spectrophotometer at a wavelength of 620 nm. The 0.5 McFarland Standard was further diluted 1:100 in broth to create the standard inoculum. 50 μl of this standard inoculum was dispensed into every well in the microtitre tray, except the negative controls, where 50 μl of broth was dispensed instead.
(§4) Next, a working concentration at two times the highest target concentration for every antimicrobial was created in broth from stock solutions. 100 μl of this working concentration was pipetted into the first well, and 50 μl of broth media into all other wells. 50 μl of the first well was pipetted out and serially diluted across all wells in the row until the final concentration in the range achieved. 50 μl from the final well was removed and discarded. This produced a concentration range where each well was double the target concentration. All agents were performed in duplicate.
(§5) 96 well trays were incubated at 37° C. for 18±2 hours.

[2] = system: S. aureus MSSA 278; test: as above; format: cell-based, Staphylococcus aureus; settings: unit assumed
Description: as §1, §2, §3, §4, §5

[3] = system: P. aeruginosa strain WACC91; test: Resazurin reduction of planktonic cultures in M63 (glucose), D- versus L-Lactic acid (Example 3); format: cell-based, Pseudomonas aeruginosa; settings: resorufin fluorescence; compared to vehicle only treatment; M63 (glucose); 24 h
Description: . Viable cells reduce the blue resazurin dye to the pink, fluorescent resorufin form. Following incubation fluorescence was quantified by excitation wavelength of 540 nm and an emission wavelength of 590 nm using Enspire microplate reader.
P. aeruginosa strain WACC91 was maintained as a suspension in 20% (v/v) glycerol/Brain-Heart Infusion at −80° C. For use, a loop-full of ice was scraped from the stock and streaked for single colonies on LB media containing 1.8% agar and incubated overnight at 37° C. Isolated colonies were looped into 5 mL of LB broth and incubated at 37° C. with shaking until turbidity was greater than that of a 1.0 McFarland Standard (3-4 h).
The broth culture was diluted in M63 minimal media containing 0.2% (w/v) glucose as the sole carbon source to a turbidity equal to a 1.0 McFarland standard using a spectrophotometer at a wavelength of 595 nm. This culture was then diluted 1:100 in M63 (glucose) and 100 μL together with an additional 50 μL was transferred to each well of a 96 well microtitre tray and incubated overnight at 37° C., 5% CO2. D-Lactic acid, L-Lactic acid, or vehicle only (sterile H2O) was then applied by adding 50 μL of appropriate stock solutions diluted in M63 (glucose) and incubating for a further 24 hours at 37° C., 5% CO2. Culture metabolic activity was then determined using resazurin reduction as described above in Example 1.

[4] = system: Pseudomonas aeruginosa clinical isolates from patients with cystic fibrosis; test: Resazurin staining of planktonic cultures, metabolic activity (Example 1); format: cell-based; settings: resorufin fluorescence; 24 clinical isolates; 24 h D-Lactic acid treatment
Description: Clinical isolates of Pseudomonas aeruginosa collected from patients with cystic fibrosis were phenotyped and stored as 50% glycerol stocks at −70° C.±2° C. Clinical isolates were thawed and streaked out on blood agar plates to grow at 37° C., 5% CO2 for 12-24 hours, or until isolated colonies were large enough to sustain further culturing could be selected. Isolated colonies were looped into 5 mL of LB broth and incubated overnight at 37° C., 5% CO2 with gentle shaking to achieve stationary phase (B0).
B0 cultures were diluted 1:1000 in Pseudomonas minimal medium (herein referred to as PMM) to achieve approximately […], then 150 μL of each diluted culture was transferred to wells of a 96 well mitrotitre tray and incubated overnight at 37° C., 5% CO2. D-Lactic acid was then applied by adding 50 μL of appropriately stock solutions diluted in PMM (or vehicle-only in the case of control wells) and incubating for a further 24 hours at 37° C., 5% CO2. 20 μL culture supernatant was then transferred to wells containing 180 μL fresh PMM, culture density determined by measuring the absorbance at 595 nm (using a ThermoFisher Multiskan FC plate reader). […]
Viable cells reduce the blue resazurin dye to the pink, fluorescent resorufin form. Following incubation fluorescence was quantified by excitation wavelength of 540 nm and an emission wavelength of 590 nm using Enspire microplate reader. […]

[5] = system: K. pneumoniae WACC 790; test: Resazurin reduction for the evaluation of metabolic activity (Example 2, FIG. 8); format: cell-based, Klebsiella pneumoniae
Description: as §1
Aerobic respiration was measured in the presence or absence of D-Lactic acid and the presence or absence of companion antibiotics either following incubation and visual recording of the MIC, or in a separate study. For evaluation after completion of MIC determination, the entire volume of the MIC well (100 μl) was mixed by pipetting up and down, then transferred to the equivalent well of a fluorescence-absorbance suitable 96-well plate. Alternatively, cultures were pipetted together as above and incubated overnight at 37° C. in the absence of any antimicrobial compounds. […] After incubation regimes were completed for both procedures, resazurin reduction was evaluated by adding 10 μl of a 0.02% resazurin solution to every well, and incubating the plates with gentle shaking (40 rpm) for a further 90 minutes at 37° C. […]
Following incubation, the 96-well trays were read on a fluorescence-absorbance spectrophotometer, using an excitation frequency of 565 nm and emission frequency of 590 nm. […]

[6] = system: bioluminescent col^R E. coli Xen14; test: Murine peritoneal-sepsis model, CD1 male mice challenged IP (Example 6); format: in vivo, Escherichia coli; settings: for survival of infected mice: up to 72 h post-infection, 8 mice per group, Sodium D-Lactate 1000 mg/kg single oral dose, colistin 1 mg/kg IP at 0, 4, 8 and 12 h
Description: Bioluminescent col^R E. coli Xen14 was streaked onto a 5% sheep blood agar plate containing 30 μg/ml kanamycin and incubated overnight (o/n) at 37° C. in normal air. The plate was first checked on a Lumina XRMS Ill machine to ensure bioluminescence, then a loopful of the o/n growth was suspended into 10 mL Luria Bertani (LB) broth to A600 nm=0.05. The suspension was incubated at 37° C. for approx. 3 h until A600 nm=0.5 (equivalent to approx. 5×10^8 CFU/mL). The bacterial suspension was centrifuged at 4,000×g for 5 min, resuspended and washed twice in phosphate buffered saline (PBS, pH 7.2) resuspended again in PBS and then placed on wet ice and used for mouse infection within 10 min of preparation as described below.
Outbred Swiss male (CD1) mice, 6-7 weeks (approx. 26-33 g, 8 mice per group) obtained from the Laboratory Animal Services breeding facility of The University of Adelaide, were used in these experiments. Mice had access to food and water ad libitum. The Animal Ethics Committee of The University of Adelaide (approval number S-2022-044) reviewed and approved all animal experiments. The study was conducted in compliance with the Australian Code of Practice for the Care and Use of Animals for Scientific Purposes (8th Edition 2013) and the South Australian Animal Welfare Act 1985.
Each mouse was challenged intraperitoneally (IP) with approx. 1×10^8 CFU of the bioluminescent col^R E. coli Xen14 in 200 μL PBS containing 3% porcine stomach mucin type Ill (Sigma Aldrich) and subjected to bioluminescence imaging in both ventral and dorsal positions on the IVIS Lumina XRMS Series Ill system while under anaesthesia. […]
Aliquots of blood samples (approx. 50 μL) were taken by submandibular (facial vein) bleeding from individual mice in all groups at 4 h for bacterial enumeration. […] In all experiments, signals were collected from a defined region of interest and total flux intensities (photons/s) analysed using Living Image Software 4.7.3. Survival rates for the groups were recorded. […]

[7] = system: S. aureus 29213; test: Minimum inhibitory concentration of metal salts by broth microdilution in Trypticase Soya broth (Example 4); format: cell-based, Staphylococcus aureus
Description: (§6) Bacterial strains were maintained as suspensions in 20% (v/v) glycerol/Brain-Heart Infusion at −80° C. For use, a loop-full of ice was scraped from the stock and streaked for single colonies on Trypticase Soya agar containing 1.8% agar and incubated overnight at 37° C.
(§7) A standard inoculum was prepared from broth culture. One to three colonies from an overnight agar culture plate were transferred to 5 ml of broth media and incubated at 37° C. with shaking (200 rpm) until turbidity was greater than that of a 0.5 McFarland Standard (overnight). All assays were performed in Trypticase Soya broth.
as §3
(§8) Next, a working concentration at two times the highest target concentration for every salt (in aqueous solution) was created in broth from stock solutions. 100 μl of this working concentration was pipetted into the first well, and 50 μl of broth media into all other wells. 50 μl of the first well was pipetted out and serially diluted across all wells in the row until the final concentration in the range achieved. 50 μl from the final well was removed and discarded. This produced a concentration range where each well was double the target concentration. All agents were performed in duplicate.
as §5

[8] = system: S. aureus MRSA 510; test: as above; format: cell-based, Staphylococcus aureus
Description: as §6, §7, §3, §8, §5

[9] = system: P. aeruginosa 001-11R; test: Minimum inhibitory concentration by broth microdilution (Example 2); format: cell-based, Pseudomonas aeruginosa
Description: Bacterial strains were maintained as suspensions in 20% (v/v) glycerol/Brain-Heart Infusion at −80° C. For use, a loop-full of ice was scraped from the stock and streaked for single colonies on rich media containing 1.8% agar (for Pseudomonas aeruginosa or Klebsiella pneumoniae, Luria-Bertani medium; for Staphylococcus aureus or Streptococcus pneumoniae, Trypticase Soy agar) and incubated overnight at 37° C.
A standard inoculum was prepared from broth culture. 1 to 3 colonies from an overnight agar culture plate were transferred to 5 ml of broth media and incubated at 37° C. with shaking (200 rpm) until turbidity was greater than that of a 0.5 McFarland Standard (overnight). The following broth media were used: Cation-adjusted Mueller-Hinton broth (caMHB—all strains); Roswell Park Memorial Institute medium (RPMI 1640, phenol red-free—S. aureus); Trypticase Soya Broth (TSB—S. aureus, S. pneumoniae); Todd Hewitt Broth (THB—S. pneumoniae), M63 minimal medium, supplemented with 0.2% glucose (M63—K. pneumoniae).
as §3, §4, §5

[10] = antibiotic + 1 mM D-Lactic acid
[11] = antibiotic + 10 mM D-Lactic acid

CO[C@H]1/C=C/O[C@@]2(C)Oc3c(C)c(O)c4c(O)c(c(/C=N/N5CCN(C)CC5)c(O)c4c3C2=O)NC(=O)/C(C)=C\C=C\[C@H](C)[C@H](O)[C@@H](C)[C@@H](O)[C@@H](C)[C@H](OC(C)=O)[C@@H]1C [rifampicin]
MIC + 1 mM D-Lactic acid [1, 10]: 8 ng/mL
MIC + 10 mM D-Lactic acid [1, 11]: 8 ng/mL
MIC ([1]; antibiotic alone): 60 ng/mL (≈ 0.0729 µM)
MIC + 1 mM D-Lactic acid [2, 10]: 8 ng/mL
MIC + 10 mM D-Lactic acid [2, 11]: 8 ng/mL
MIC ([2]; antibiotic alone): 15 ng/mL (≈ 0.0182 µM)

C[C@@H](O)C(=O)O [D-Lactic acid, (2R)-2-hydroxypropanoic acid]
inhibition of metabolic activity [3]: > 50%
inhibition of metabolic activity [4]: 90%

O=C(O)c1cn(C2CC2)c2cc(N3CCNCC3)c(F)cc2c1=O [Ciprofloxacin]
Relative metabolic activity, antibiotic plus D-Lactic acid versus antibiotic only ([5]; plus 0.1 mM D-Lactic acid): enhances metabolic activity suppression

C[C@@H](O)C(=O)[O-].[Na+] [Sodium D-Lactate]
treatment effectiveness (protection) ([6]; single oral dose of 1000 mg/kg): not protective
survival of infected mice [6]: succumbed to infection by 12 h post-challenge

[Zn+2] [Zn^2+]
MIC D-Lactate salt ([7]; metal ion as D-Lactate salt): 4 mM
MIC (NO3)2 salt ([7]; metal ion as nitrate salt): 8 mM
MIC D-Lactate salt ([8]; metal ion as D-Lactate salt): 4 mM
MIC (NO3)2 salt ([8]; metal ion as nitrate salt): 8 mM

colistin
survival of infected mice [6]: three out eight
Relative metabolic activity, antibiotic plus D-Lactic acid versus antibiotic only ([5]; plus 10 mM D-Lactic acid): enhances metabolic activity suppression
MIC + 1 mM D-Lactic acid [9, 10]: 1.0
MIC + 10 mM D-Lactic acid [9, 11]: 1.0
MIC ([9]; antibiotic alone): 2.0

Source: patent publication US20260271925A1, “DYSREGULATION OF PLANKTONIC BACTERIAL METABOLISM” (Lixa Limited, priority 2023, published 2026)
